biological target: T1, hP2Y14R (Homo sapiens, UniProt Q15391); assay: Inhibition of fluorescent antagonist binding in whole hP2Y14R-expressing CHO cells (flow cytometry); conditions: Example 5 table; whole cell fluorescent binding assay; read-out: IC50
T1 construct: expressed in transfected cells; host or cells: CHO cells
T1 sequence (Q15391 1-338): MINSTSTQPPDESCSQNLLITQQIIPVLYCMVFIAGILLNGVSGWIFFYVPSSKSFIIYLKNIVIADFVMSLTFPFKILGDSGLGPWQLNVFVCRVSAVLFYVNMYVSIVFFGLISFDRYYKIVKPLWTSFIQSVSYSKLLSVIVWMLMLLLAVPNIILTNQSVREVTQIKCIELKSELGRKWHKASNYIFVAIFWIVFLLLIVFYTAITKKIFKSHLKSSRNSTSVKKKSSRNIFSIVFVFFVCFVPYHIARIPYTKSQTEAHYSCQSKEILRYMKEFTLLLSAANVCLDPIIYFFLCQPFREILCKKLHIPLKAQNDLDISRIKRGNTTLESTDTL

IC50 [µM] | Compound
0.00958 ± 0.00514 | O=C(O)c1cc(-c2ccc(C3CCCNCC3)cc2)c2ccc(-c3ccc(C(F)(F)F)cc3)cc2c1 (centres unmarked) [Compound 426, 4-(4-(Azepan-4-yl)phenyl)-7-(4-(trifluoromethyl)phenyl)-2-naphthoic acid]
0.00592 ± 0.00055 | O=C(O)c1cc(-c2ccc([C@@]3(O)[C@@H]4CNC[C@H]3C4)cc2)c2ccc(-c3ccc(C(F)(F)F)cc3)cc2c1 [Compound 425, 4-(4-((1R,5S,6r)-6-Hydroxy-3-azabicyclo[3.1.1]heptan-6-yl)phenyl)-7-(4-(trifluoromethyl)phenyl)-2-naphthoic acid]
0.0208 ± 0.0056 | O=C(O)c1cc(-c2ccc(C3(O)CC4(CNC4)C3)cc2)c2ccc(-c3ccc(C(F)(F)F)cc3)cc2c1 [Compound 408, 4-(4-(6-Hydroxy-2-azaspiro[3.3]heptan-6-yl)phenyl)-7-(4-(trifluoromethyl)phenyl)-2-naphthoic acid]
0.00969 ± 0.00356 | O=C(O)c1cc(-c2ccc(C3=CC4(CNC4)C3)cc2)c2ccc(-c3ccc(C(F)(F)F)cc3)cc2c1 [Compound 407, 4-(4-(2-Azaspiro[3.3]hept-5-en-6-yl)phenyl)-7-(4-(trifluoromethyl)phenyl)-2-naphthoic acid]
0.0119 ± 0.0036 | Mixture of 4-(4-(2,3,6,7-Tetrahydro-1H-azepin-4-yl)phenyl)-7-(4-(trifluoromethyl)phenyl)-2-naphthoic acid and 4-(4-(2,5,6,7-tetrahydro-1H-azepin-4-yl)phenyl)-7-(4-(trifluoromethyl)phenyl)-2-naphthoic acid [Compound 427]
0.0659 ± 0.0193 | O=C(O)c1cc(-c2ccc(C3CNC3)cc2)c2ccc(-c3ccc(C(F)(F)F)cc3)cc2c1 [Compound 405, 4-(4-(Azetidin-3-yl)phenyl)-7-(4-(trifluoromethyl)phenyl)-2-naphthoic acid]
1.78 ± 0.44 | O=C(O)c1cc(-c2ccc(C3(O)CCCNCCC3)cc2)c2ccc(-c3ccc(C(F)(F)F)cc3)cc2c1 [Compound 430, 4-(4-(5-hydroxyazocan-5-yl)phenyl)-7-(4-(trifluoromethyl)phenyl)-2-naphthoic acid]
0.524 ± 0.104 | O=C(O)c1cc(-c2ccc([C@H]3[C@@H]4CNC[C@H]3C4)cc2)c2ccc(-c3ccc(C(F)(F)F)cc3)cc2c1 [Compound 424, 4-(4-((1R,5S,6r)-3-Azabicyclo[3.1.1]heptan-6-yl)phenyl)-7-(4-(trifluoromethyl)phenyl)-2-naphthoic acid]
0.0466 ± 0.0071 | O=C(O)c1cc(-c2ccc(C3CC4(CNC4)C3)cc2)c2ccc(-c3ccc(C(F)(F)F)cc3)cc2c1 [Compound 406, 4-(4-(2-Azaspiro[3.3]heptan-6-yl)phenyl)-7-(4-(trifluoromethyl)phenyl)-2-naphthoic acid]

Compound | IC50 [µM]
4-(4-(6-Methoxy-2-azaspiro[3.3]heptan-6-yl)phenyl)-7-(4-(trifluoromethyl)phenyl)-2-naphthoic acid and 4-(4-(6-(methoxy-d3)-2-azaspiro[3.3]heptan-6-yl)phenyl)-7-(4-(trifluoromethyl)phenyl)-2-naphthoic acid [Compound 409] | 0.0465 ± 0.01

same assay, conditions: Table 1; fluorescent antagonist 2, hP2Y14R-CHO cells, 3-4 determinations; read-out: IC50, hP2Y14R (μM, mean ± SEM)

Compound | IC50 [µM]
CC(C)(C)OC(=O)NCC1(c2ccc(-c3cc(C(=O)O)cc(-n4cc(-c5ccc(C(F)(F)F)cc5)nn4)c3)cc2)CC1 [Compound 24, 4′-(1-(((tert-Butoxycarbonyl)amino)methyl)cyclopropyl)-5-(4-(4-(trifluoromethyl)phenyl)-1H-1,2,3-triazol-1-yl)-[1,1′-biphenyl]-3-carboxylic acid] | 18.8 ± 2
NC(=O)Cc1ccc(-c2cc(C(=O)O)cc(-n3cc(-c4ccc(C(F)(F)F)cc4)nn3)c2)cc1 [Compound 16, 4′-(2-Amino-2-oxoethyl)-5-(4-(4-(trifluoromethyl)phenyl)-1H-1,2,3-triazol-1-yl)-[1,1′-biphenyl]-3-carboxylic acid] | 1.29 ± 0.32
NCCCc1ccc(-c2cc(C(=O)O)cc(-n3cc(-c4ccc(C(F)(F)F)cc4)nn3)c2)cc1 [Compound 18, 4′-(3-Aminopropyl)-5-(4-(4-(trifluoromethyl)phenyl)-1H-1,2,3-triazol-1-yl)-[1,1′-biphenyl]-3-carboxylic acid] | 0.292 ± 0.067
NC1(c2ccc(-c3cc(C(=O)O)cc(-n4cc(-c5ccc(C(F)(F)F)cc5)nn4)c3)cc2)CC1 [Compound 22, 4′-(1-Aminocyclopropyl)-5-(4-(4-(trifluoromethyl)phenyl)-1H-1,2,3-triazol-1-yl)-[1,1′-biphenyl]-3-carboxylic acid] | 14.1 ± 0.9
O=C(O)c1cc(-c2ccc(-c3cc(CCO)on3)cc2)cc(-n2cc(-c3ccc(C(F)(F)F)cc3)nn2)c1 [Compound 30, 4′-(5-(2-Hydroxyethyl)isoxazol-3-yl)-5-(4-(4-(trifluoromethyl)phenyl)-1H-1,2,3-triazol-1-yl)-[1,1′-biphenyl]-3-carboxylic acid] | 0.389 ± 0.042
NC1(c2ccc(-c3cc(C(=O)O)cc(-n4cc(-c5ccc(C(F)(F)F)cc5)nn4)c3)cc2)CCC1 [Compound 25, 4′-(1-Aminocyclobutyl)-5-(4-(4-(trifluoromethyl)phenyl)-1H-1,2,3-triazol-1-yl)-[1,1′-biphenyl]-3-carboxylic acid] | 2 ± 0.18
N#CCCc1ccc(-c2cc(C(=O)O)cc(-n3cc(-c4ccc(C(F)(F)F)cc4)nn3)c2)cc1 [Compound 17, 4′-(2-Cyanoethyl)-5-(4-(4-(trifluoromethyl)phenyl)-1H-1,2,3-triazol-1-yl)-[1,1′-biphenyl]-3-carboxylic acid] | 17.8 ± 2.9
CC(C)(C)OC(=O)N1CCC(C(=O)Nc2ccc(-c3cc(C(=O)O)cc(-n4cc(-c5ccc(C(F)(F)F)cc5)nn4)c3)cc2)CC1 [Compound 12, 4′-(1-(tert-Butoxycarbonyl)piperidine-4-carboxamido)-5-(4-(4-(trifluoromethyl)phenyl)-1H-1,2,3-triazol-1-yl)-[1,1′-biphenyl]-3-carboxylic acid] | 22.5 ± 3.7
NCC1(c2ccc(-c3cc(C(=O)O)cc(-n4cc(-c5ccc(C(F)(F)F)cc5)nn4)c3)cc2)CC1 [Compound 23, 4′-(1-(Aminomethyl)cyclopropyl)-5-(4-(4-(trifluoromethyl)phenyl)-1H-1,2,3-triazol-1-yl)-[1,1′-biphenyl]-3-carboxylic acid] | 8.91 ± 0.75
O=C(O)c1ccc(-c2cc(C(=O)O)cc(-n3cc(-c4ccc(C(F)(F)F)cc4)nn3)c2)cc1 [Compound 13, 5-(4-(4-(Trifluoromethyl)phenyl)-1H-1,2,3-triazol-1-yl)-[1,1′-biphenyl]-3,4′-dicarboxylic acid] | 0.632 ± 0.023
O=C(O)c1cc(-c2ccc(CCCCO)cc2)cc(-n2cc(-c3ccc(C(F)(F)F)cc3)nn2)c1 [Compound 21, 4′-(4-Hydroxybutyl)-5-(4-(4-(trifluoromethyl)phenyl)-1H-1,2,3-triazol-1-yl)-[1,1′-biphenyl]-3-carboxylic acid] | 9.22 ± 1.22

same assay, conditions: Table 2; whole hP2Y14R-CHO cells, 20 nM fluorescent antagonist 3, mean+SEM, n = 3-6; read-out: IC50

Compound | IC50 [µM]
O=C(O)c1cc(-c2ccc([C@H]3C[C@H]4C[C@@H]3NC4=O)cc2)c2ccc(-c3ccc(C(F)(F)F)cc3)cc2c1 [Compound 122, 4-(4-((1S,4S,6R)-3-Oxo-2-azabicyclo[2.2.1]heptan-6-yl)phenyl)-7-(4-(trifluoromethyl)phenyl)-2-naphthoic acid] | 0.0586 ± 0.0129
O=C(O)c1cc(-c2ccc(C3CCN(CCCCc4cn([C@@H]5O[C@H](CO)[C@@H](O)[C@H](O)[C@H]5O)nn4)CC3)cc2)c2ccc(-c3ccc(C(F)(F)F)cc3)cc2c1 [Compound 508, 7-(4-(Trifluoromethyl)phenyl)-4-(4-(1-(4-(1-((2R,3R,4S,5S,6R)-3,4,5-trihydroxy-6-(hydroxymethyl)tetrahydro-2H-pyran-2-yl)-1H-1,2,3-triazol-4-yl)butyl)piperidin-4-yl)phenyl)-2-naphthoic acid] | 0.0157 ± 0.0025
O=C(O)c1cc(-c2ccc([C@H]3C[C@H]4C[C@@H]3C(=O)N4)cc2)c2ccc(-c3ccc(C(F)(F)F)cc3)cc2c1 [Compound 119, 4-(4-((1S,4S,5S)-3-Oxo-2-azabicyclo[2.2.1]heptan-5-yl)phenyl)-7-(4-(trifluoromethyl)phenyl)-2-naphthoic acid] | 0.101 ± 0.07
CS(=O)(=O)N1C[C@H]2C[C@@H]1C[C@@H]2c1ccc(-c2cc(C(=O)O)cc3cc(-c4ccc(C(F)(F)F)cc4)ccc23)cc1 [Compound 123] | 0.497 ± 0.092

same assay, conditions: Table 6; fluorescent hP2Y14R antagonist (3); read-out: hP2Y14R, IC50

Compound | IC50 [µM]
N[C@H]1C[C@@H](CO)C[C@@H]1c1ccc(-c2cc(C(=O)O)cc3cc(-c4ccc(C(F)(F)F)cc4)ccc23)cc1 [Compound 137, 4-(4-((1R,2S,4S)-2-Amino-4-(hydroxymethyl)cyclopentyl)phenyl)-7-(4-(trifluoromethyl)phenyl)-2-naphthoic acid] | 0.125 ± 0.045

same assay, conditions: read-out: IC50

IC50 [µM] | Compound
0.032 ± 0.0112 | O=C(O)c1cc(-c2ccc(C3C[C@H]4CNC[C@@H]4C3)cc2)c2ccc(-c3ccc(C(F)(F)F)cc3)cc2c1 (racemic) [Compound 413, rac-4-(4-((3aR,6aR)-Octahydrocyclopenta[c]pyrrol-5-yl)phenyl)-7-(4-(trifluoromethyl)phenyl)-2-naphthoic acid]
0.00948 ± 0.00166 | O=C(O)c1cc(-c2ccc(C3(O)C[C@H]4CNC[C@@H]4C3)cc2)c2ccc(-c3ccc(C(F)(F)F)cc3)cc2c1 (racemic) [Compound 411, rac-4-(4-((3aR,6aR)-5-hydroxyoctahydrocyclopenta[c]pyrrol-5-yl)phenyl)-7-(4-(trifluoromethyl)phenyl)-2-naphthoic acid]
0.0166 ± 0.0032 | O=C(O)c1cc(-c2ccc(C3=C[C@H]4CNC[C@@H]4C3)cc2)c2ccc(-c3ccc(C(F)(F)F)cc3)cc2c1 (racemic) [Compound 412, rac-4-(4-((3aR,6aR)-1,2,3,3a,4,6a-Hexahydrocyclopenta[c]pyrrol-5-yl)phenyl)-7-(4-(trifluoromethyl)phenyl)-2-naphthoic acid]
